Like-named read-outs stand apart in the source and are kept apart here.
Molecular target: T1, full-length SARM1 (FL-SARM1) (Homo sapiens, UniProt Q6SZW1)
T1 sequence (Q6SZW1 28-724): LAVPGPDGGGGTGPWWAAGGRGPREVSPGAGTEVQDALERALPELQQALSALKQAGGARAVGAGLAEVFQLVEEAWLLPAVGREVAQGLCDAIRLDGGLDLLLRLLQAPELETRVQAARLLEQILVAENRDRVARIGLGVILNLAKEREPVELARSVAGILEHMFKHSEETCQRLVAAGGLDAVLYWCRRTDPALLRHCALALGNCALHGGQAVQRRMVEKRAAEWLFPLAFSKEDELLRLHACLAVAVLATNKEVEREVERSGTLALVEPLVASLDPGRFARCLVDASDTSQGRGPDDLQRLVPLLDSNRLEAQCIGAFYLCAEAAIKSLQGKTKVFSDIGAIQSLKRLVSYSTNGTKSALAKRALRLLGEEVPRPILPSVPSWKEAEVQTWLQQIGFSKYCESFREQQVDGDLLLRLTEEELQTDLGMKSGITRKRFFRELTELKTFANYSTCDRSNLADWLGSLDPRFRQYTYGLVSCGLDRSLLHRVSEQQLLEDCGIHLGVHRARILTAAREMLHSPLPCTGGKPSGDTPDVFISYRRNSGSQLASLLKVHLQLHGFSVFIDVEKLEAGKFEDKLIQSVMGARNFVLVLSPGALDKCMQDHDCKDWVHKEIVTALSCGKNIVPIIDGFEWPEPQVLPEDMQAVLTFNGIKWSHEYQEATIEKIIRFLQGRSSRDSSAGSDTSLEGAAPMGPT
Assay: FL-SARM1 cellular lysate assay (NAD/NADH-Glo detection of remaining NAD+, NMN-activated)

[1] = Activity (IC50 class), 11 point curve
[2] = Activity (μM) (IC50), 11 point curve
[3] = read-out: Activity (IC50 class), 11 point curve

Row | SMILES | IC50 [1] [µM] | IC50 [2] [µM] | IC50 [3] [µM]
1 | Cc1ccc(NC(=O)C(C)C2CCC2)cc1-c1cccnn1 (racemic) [Example 297, 2-cyclobutyl-N-(4-methyl-3-pyridazin-3-ylphenyl)propanamide] | 1 to 10 | 6.5 | 
2 | Cc1ccc(NC(=O)C(Cc2ncccn2)C2CCC2)cc1-c1ncc(F)cn1 (racemic) [Example 302, 2-cyclobutyl-N-(3-(5-fluoropyrimidin-2-yl)-4-methylphenyl)-3-(pyrimidin-2-yl)propanamide] | 1 to 10 | 3 | 
3 | COCC1COc2ccccc2CN1C(=O)Nc1ccc(C)c(-c2ncc(F)cn2)c1 (racemic) [Example 309, N-(3-(5-fluoropyrimidin-2-yl)-4-methylphenyl)-3-(methoxymethyl)-2,3-dihydrobenzo[f][1,4] oxazepine-4(5H)-carboxamide] | 1 to 10 | 1.1 | 
4 | CC1CCCCCN1C(=O)Nc1ccc(C(F)(F)F)c(-c2ncc(F)cn2)c1 (racemic) [Example 312, N-(3-(5-fluoropyrimidin-2-yl)-4-(trifluoromethyl)phenyl)-2-methylazepane-1-carboxamide] | 1 to 10 | 1.4 | 
5 | Cc1ccc(NC(=O)C2CCC3(CC3)CN2c2ccccn2)cc1-c1ncc(F)cn1 (racemic) [Example 314] | 1 to 10 | 1.2 | 
6 | Cc1ccc(NC(=O)[C@H]2CC[C@@H](C)CN2c2ncccn2)cc1-c1ncccn1 (racemic) [Example 327] |  | 0.5 | 0.0001 to 1
7 | Cc1ccc(NC(=O)N2CC3CC(C)C2C3)cc1-c1ccccn1 (single isomer, unassigned) [Example 12, 6-methyl-N-(4-methyl-3-(pyridin-2-yl)phenyl)-2-azabicyclo[2.2.1]heptane-2-carboxamide] | 1 to 10 | 2 | 
8 | Cc1ccc(NC(=O)N2C3C[C@@H]2CC[C@@H]3C)cc1-c1ccccn1 (single isomer, unassigned) [Example 47, cis-2-methyl-N-(4-methyl-3-(pyridin-2-yl)phenyl)-6-azabicyclo[3.1.1]heptane-6-carboxamide] |  | 0.06 | 0.0001 to 1
9 | Cc1ccc(NC(=O)N2C3C[C@@H]2CC[C@H]3C)cc1-c1ccccn1 (single isomer, unassigned) [Example 48, trans-2-methyl-N-(4-methyl-3-(pyridin-2-yl)phenyl)-6-azabicyclo[3.1.1]heptane-6-carboxamide] |  | 0.1 | 0.0001 to 1
10 | Cc1ccc(NC(=O)N2C3C[C@@H]2CC[C@H]3C)cc1-c1ccccn1 (single isomer, unassigned) [Example 49, trans-2-methyl-N-(4-methyl-3-(pyridin-2-yl)phenyl)-6-azabicyclo[3.1.1]heptane-6-carboxamide] |  | 0.2 | 0.0001 to 1
11 | Cc1ccc(NC(=O)N2C3CC2CC(C(F)(F)F)C3)cc1-c1ccccn1 (single isomer, unassigned) [Example 86, N-(4-methyl-3-pyridin-2-ylphenyl)-3-(trifluoromethyl)-6-azabicyclo[3.1.1]heptane-6-carboxamide] |  | 0.01 | 0.0001 to 1
12 | Cc1ccc(NC(=O)[C@@H]2[C@@H]3CC[C@H]2N(CC(F)(F)F)C3)cc1-c1ccccn1 (single isomer, unassigned) [Example 104, trans-N-(4-methyl-3-(pyridin-2-yl)phenyl)-2-(2,2,2-trifluoroethyl)-2-azabicyclo[2.2.1]heptane-7-carboxamide] | 1 to 10 | 2.6 | 
13 | Cc1ccc(NC(=O)[C@@H]2[C@@H]3CC[C@H]2N(CC(F)(F)F)C3)cc1-c1ccccn1 (single isomer, unassigned) [Example 105, trans-N-(4-methyl-3-(pyridin-2-yl)phenyl)-2-(2,2,2-trifluoroethyl)-2-azabicyclo[2.2.1]heptane-7-carboxamide] | > 10 | 17 | 
14 | CC[C@H]1C[C@@H]1C(=O)Nc1ccc(C)c(-c2ccccn2)c1 (single isomer, unassigned) [Example 107, trans-2-ethyl-N-(4-methyl-3-pyridin-2-ylphenyl)cyclopropane-1-carboxamide] | > 10 | 18 | 
15 | CC[C@H]1C[C@H]1C(=O)Nc1ccc(C)c(-c2ccccn2)c1 (single isomer, unassigned) [Example 109, cis-2-ethyl-N-(4-methyl-3-pyridin-2-ylphenyl)cyclopropane-1-carboxamide] |  | 0.3 | 0.0001 to 1
16 | CC[C@H]1C[C@H]1C(=O)Nc1ccc(C)c(-c2ccccn2)c1 (single isomer, unassigned) [Example 110, cis-2-ethyl-N-(4-methyl-3-pyridin-2-ylphenyl)cyclopropane-1-carboxamide] | 1 to 10 | 6 | 
17 | Cc1ccc(NC(=O)[C@H]2C[C@H](C3CC3)C2)cc1-c1ccccn1 (single isomer, unassigned) [Example 121, trans-3-cyclopropyl-N-(4-methyl-3-pyridin-2-ylphenyl)cyclobutane-1-carboxamide] |  | 0.9 | 0.0001 to 1
18 | Cc1ccc(NC(=O)[C@H]2C[C@@H](C3CC3)C2)cc1-c1ccccn1 (single isomer, unassigned) [Example 122, cis-3-cyclopropyl-N-(4-methyl-3-pyridin-2-ylphenyl)cyclobutane-1-carboxamide] |  | 0.3 | 0.0001 to 1
19 | Cc1ccc(NC(=O)C2CC3CC[C@H]2C3)cc1-c1ccccn1 (single isomer, unassigned) [Example 137, trans-N-(4-methyl-3-pyridin-2-ylphenyl)bicyclo[2.2.1]heptane-2-carboxamide] |  | 0.1 | 0.0001 to 1
20 | Cc1ccc(NC(=O)[C@@H]2C[C@H]3CC[C@@H]2C3)cc1-c1ccccn1 (single isomer, unassigned) [Example 138, cis-N-(4-methyl-3-pyridin-2-ylphenyl)bicyclo[2.2.1]heptane-2-carboxamide] |  | 0.7 | 0.0001 to 1
21 | Cc1ccc(NC(=O)C2CC3CC[C@H]2C3)cc1-c1ccccn1 (single isomer, unassigned) [Example 139, cis-N-(4-methyl-3-pyridin-2-ylphenyl)bicyclo[2.2.1]heptane-2-carboxamide] |  | 0.2 | 0.0001 to 1
22 | Cc1ccc(NC(=O)C2CC3CC[C@@H]2C3)cc1-c1ccccn1 (single isomer, unassigned) [Example 140] |  | 0.9 | 0.0001 to 1
23 | CCOC(C)[C@@]12CC(C[C@@H](C)C1)N2C(=O)Nc1ccc(C)c(-c2ncc(F)cn2)c1 (single isomer, unassigned) [Example 186] |  | 0.2 | 0.0001 to 1
24 | CCOC(C)[C@@]12CC(C[C@@H](C)C1)N2C(=O)Nc1ccc(C)c(-c2ncc(F)cn2)c1 (single isomer, unassigned) [Example 187, cis-1-(1-ethoxyethyl)-N-(3-(5-fluoropyrimidin-2-yl)-4-methylphenyl)-3-methyl-6-azabicyclo[3.1.1]heptane-6-carboxamide] |  | 0.2 | 0.0001 to 1
25 | CCOC(C)[C@@]12CC(C[C@@H](C)C1)N2C(=O)Nc1ccc(C)c(-c2ncc(F)cn2)c1 (single isomer, unassigned) [Example 188, cis-1-(1-ethoxyethyl)-N-(3-(5-fluoropyrimidin-2-yl)-4-methylphenyl)-3-methyl-6-azabicyclo[3.1.1]heptane-6-carboxamide] |  | 0.003 | 0.0001 to 1

Source: patent US20250171462A1 (NICO Therapeutics, Inc., priority 2022, published 2025)
